The results in this text go back to patent US20240209027A1, “PEPTIDE AND PEPTIDE-CONTAINING COMPOSITION” (PeptiAID Inc.,, priority 2021, published 2024).

Starred links: 1 amine or outer side, 2 acyl side, 3 side chain; linkers in the order of their positions; H or OH if unused. Positions of bridges follow the written chain, without caps; N, C: chain ends. Non-standard residues stand in square brackets, D forms with d. Residues, ends and D or L forms follow the SMILES beside them. ξ: configuration not given here. Ala(piperidin-4-yl) = O=C([C@H](CC1CCN([*:3])CC1)N[*:1])[*:2]; Ala(indan-2-yl) = N[C@@H](CC1Cc2ccccc2C1)C(=O)O; Phe(4-COOH) = N[C@@H](Cc1ccc(C(=O)O)cc1)C(=O)O; X3 = O=C(O)CN1CCC(N[*:1])(C(=O)[*:2])CC1; Phe(4-F) = N[C@@H](Cc1ccc(F)cc1)C(=O)O; 3Pal = N[C@@H](Cc1cccnc1)C(=O)O; NMeE = CN[C@@H](CCC(=O)O)C(=O)O; dNMeE = CN[C@H](CCC(=O)O)C(=O)O; Cha = N[C@@H](CC1CCCCC1)C(=O)O; Cit = NC(=O)NCCC[C@H](N)C(=O)O; dNMeD = CN[C@H](CC(=O)O)C(=O)O; NMeNle = CCCC[C@H](NC)C(=O)O; ξαMeS = CC(N)(CO)C(=O)O; Aib = CC(C)(N)C(=O)O; Sar = CNCC(=O)O

For the test, the system named is SARS-CoV-2-derived S protein, Delta strain. The class given is cell-based. The settings on record: Table 12.

Broadly, the IC50 is the midpoint of a concentration-inhibition curve. Read a low IC50 as greater potency. For the compound `CCCC[C@H]1C(=O)NC(C)(C)C(=O)N[C@@H](CC2CCCCC2)C(=O)N[C@@H](Cc2ccc(F)cc2)C(=O)NC2(CCN(CC(=O)O)CC2)C(=O)N[C@@H](Cc2ccc(O)cc2)C(=O)N[C@@H](Cc2ccc(O)cc2)C(=O)N[C@@H](Cc2ccc(C(=O)O)cc2)C(=O)N[C@@H](CC2CCNCC2)C(=O)N[C@@H](CC2CCCCC2)C(=O)N[C@H](C(=O)N[C@H](CCC(=O)O)C(N)=O)CSCC(=O)N(C)[C@@H](CCC(=O)O)C(=O)N1C` [Peptide 5555_p173] ({CH2CO}-[NMeE][NMeNle][Aib][Cha][Phe(4-F)][X3]YY[Phe(4-COOH)][Ala(piperidin-4-yl)][Cha]C[dE]-NH2; thioether N-12), 0.6 nM corresponded to half-maximal inhibition (IC50) and the “Imax: % (at 500 nM)” value was 100%.

With `CCCC[C@H]1C(=O)NC(C)(C)C(=O)N[C@@H](CC2CCCCC2)C(=O)N[C@@H](Cc2ccc(F)cc2)C(=O)N(C)[C@H](CC(=O)O)C(=O)N[C@@H](Cc2ccc(O)cc2)C(=O)N[C@@H](Cc2ccc(O)cc2)C(=O)N[C@@H](Cc2ccc(C(=O)O)cc2)C(=O)N[C@@H](CC2CCNCC2)C(=O)N[C@@H](CC2CCCCC2)C(=O)N[C@H](C(=O)N[C@H](CCC(=O)O)C(N)=O)CSCC(=O)N(C)[C@@H](CCC(=O)O)C(=O)N1C` [Peptide 5555_p176] ({CH2CO}-[NMeE][NMeNle][Aib][Cha][Phe(4-F)][dNMeD]YY[Phe(4-COOH)][Ala(piperidin-4-yl)][Cha]C[dE]-NH2; thioether N-12), the IC50 is 0.6 nM and the “Imax: % (at 500 nM)” value came out at 100%.

Turning to `CCCC[C@H]1C(=O)NC(C)(C)C(=O)N[C@@H](CC2CCCCC2)C(=O)N[C@@H](Cc2ccc(F)cc2)C(=O)N[C@H](CC(=O)O)C(=O)N[C@@H](Cc2ccc(O)cc2)C(=O)N[C@@H](Cc2ccc(O)cc2)C(=O)N[C@@H](CCCNC(N)=O)C(=O)N[C@H](CCCCN)C(=O)N[C@@H](CC2CCCCC2)C(=O)N[C@H](C(=O)N[C@H](CCC(=O)O)C(N)=O)CSCC(=O)N[C@@H](Cc2cccnc2)C(=O)N1C` [Peptide 5555_p177] ({CH2CO}-[3Pal][NMeNle][Aib][Cha][Phe(4-F)][dD]YY[Cit][dK][Cha]C[dE]-NH2; thioether N-12), 2.8 nM corresponded to half-maximal inhibition (IC50) and the “Imax: % (at 500 nM)” value was determined as 97%.

Take `CCCC[C@H]1C(=O)NC(C)(C)C(=O)N[C@@H](CC2Cc3ccccc3C2)C(=O)N[C@@H](Cc2ccc(F)cc2)C(=O)N[C@H](CC(=O)O)C(=O)N[C@@H](Cc2ccc(O)cc2)C(=O)N[C@@H](Cc2ccc(O)cc2)C(=O)N[C@@H](CCCNC(N)=O)C(=O)N[C@H](CCCCN)C(=O)N[C@@H](CC2CCCCC2)C(=O)N[C@H](C(=O)N[C@H](CCC(=O)O)C(N)=O)CSCC(=O)N[C@@H](Cc2cccnc2)C(=O)N1C` [Peptide 5555_p178] ({CH2CO}-[3Pal][NMeNle][Aib][Ala(indan-2-yl)][Phe(4-F)][dD]YY[Cit][dK][Cha]C[dE]-NH2; thioether N-12): half-maximal inhibition (IC50) was put at 1.9 nM and the “Imax: % (at 500 nM)” value came out at 100%.

Take `CCCC[C@H]1C(=O)NC(C)(C)C(=O)N[C@@H](CC2CCCCC2)C(=O)N[C@@H](Cc2ccc(F)cc2)C(=O)N2CCC[C@H]2C(=O)N[C@@H](Cc2ccc(O)cc2)C(=O)N[C@@H](Cc2ccc(O)cc2)C(=O)N[C@@H](CCCNC(N)=O)C(=O)N[C@H](CCCCN)C(=O)N[C@@H](CC2CCCCC2)C(=O)N[C@H](C(=O)N[C@H](CCC(=O)O)C(N)=O)CSCC(=O)N(C)[C@@H](CCC(=O)O)C(=O)N1C` [Peptide 5555_p188] ({CH2CO}-[NMeE][NMeNle][Aib][Cha][Phe(4-F)]PYY[Cit][dK][Cha]C[dE]-NH2; thioether N-12): half-maximal inhibition (IC50) required 0.4 nM and the “Imax: % (at 500 nM)” value was determined as 101%.

For the compound `CCCC[C@H]1C(=O)NC(C)(C)C(=O)N[C@@H](CC2CCCCC2)C(=O)N[C@@H](Cc2ccc(F)cc2)C(=O)N(C)[C@H](CCC(=O)O)C(=O)N[C@@H](Cc2ccc(O)cc2)C(=O)N[C@@H](Cc2ccc(O)cc2)C(=O)N[C@@H](Cc2ccc(C(=O)O)cc2)C(=O)N[C@@H](CC2CCNCC2)C(=O)N[C@@H](CC2CCCCC2)C(=O)N[C@H](C(=O)N[C@H](CCC(=O)O)C(N)=O)CSCC(=O)N[C@@H](Cc2cccnc2)C(=O)N1C` [Peptide 5555_p192] ({CH2CO}-[3Pal][NMeNle][Aib][Cha][Phe(4-F)][dNMeE]YY[Phe(4-COOH)][Ala(piperidin-4-yl)][Cha]C[dE]-NH2; thioether N-12), inhibition was half-maximal at 2.5 nM (IC50) and the “Imax: % (at 500 nM)” value amounted to 102%.

Take `CCCC[C@H]1C(=O)NC(C)(C)C(=O)N[C@@H](CC2CCCCC2)C(=O)N[C@@H](Cc2ccc(F)cc2)C(=O)N[C@H](CC(=O)O)C(=O)N[C@@H](Cc2ccc(O)cc2)C(=O)N[C@@H](Cc2ccc(O)cc2)C(=O)N[C@@H](Cc2ccc(C(=O)O)cc2)C(=O)N[C@@H](CC2CCNCC2)C(=O)N[C@@H](CC2CCCCC2)C(=O)N[C@H](C(=O)N[C@H](CCC(=O)O)C(N)=O)CSCC(=O)N[C@@H](Cc2cccnc2)C(=O)N1C` [Peptide 5555_p195] ({CH2CO}-[3Pal][NMeNle][Aib][Cha][Phe(4-F)][dD]YY[Phe(4-COOH)][Ala(piperidin-4-yl)][Cha]C[dE]-NH2; thioether N-12): the IC50 is 2.3 nM and the “Imax: % (at 500 nM)” value amounted to 101%.

Take `CCCC[C@H]1C(=O)NC(C)(C)C(=O)N[C@@H](CC2Cc3ccccc3C2)C(=O)N[C@@H](Cc2ccc(F)cc2)C(=O)NC2(CCN(CC(=O)O)CC2)C(=O)N[C@@H](Cc2ccc(O)cc2)C(=O)N[C@@H](Cc2ccc(O)cc2)C(=O)N[C@@H](Cc2ccc(C(=O)O)cc2)C(=O)N[C@@H](CC2CCNCC2)C(=O)N[C@@H](CC2CCCCC2)C(=O)N[C@H](C(=O)N[C@H](CCC(=O)O)C(N)=O)CSCC(=O)N(C)[C@@H](CCC(=O)O)C(=O)N1C` [Peptide 5555_p196] ({CH2CO}-[NMeE][NMeNle][Aib][Ala(indan-2-yl)][Phe(4-F)][X3]YY[Phe(4-COOH)][Ala(piperidin-4-yl)][Cha]C[dE]-NH2; thioether N-12): the half-inhibitory concentration (IC50) was 0.8 nM and the “Imax: % (at 500 nM)” value is 101%.

In the case of `CCCC[C@H]1C(=O)NC(C)(C)C(=O)N[C@@H](CC2Cc3ccccc3C2)C(=O)N[C@@H](Cc2ccc(F)cc2)C(=O)NC(C)(CO)C(=O)N[C@@H](Cc2ccc(O)cc2)C(=O)N[C@@H](Cc2ccc(O)cc2)C(=O)N[C@@H](Cc2ccc(C(=O)O)cc2)C(=O)N[C@@H](CC2CCNCC2)C(=O)N[C@@H](CC2CCCCC2)C(=O)N[C@H](C(=O)N[C@H](CCC(=O)O)C(N)=O)CSCC(=O)N(C)[C@@H](CCC(=O)O)C(=O)N1C` (stereo partly shown) [Peptide 5555_p197] ({CH2CO}-[NMeE][NMeNle][Aib][Ala(indan-2-yl)][Phe(4-F)][ξαMeS]YY[Phe(4-COOH)][Ala(piperidin-4-yl)][Cha]C[dE]-NH2; thioether N-12), half-maximal inhibition (IC50) required 0.4 nM and the “Imax: % (at 500 nM)” value was found to be 101%.

Turning to `CCCC[C@H]1C(=O)NC(C)(C)C(=O)N[C@@H](CC2Cc3ccccc3C2)C(=O)N[C@@H](Cc2ccc(F)cc2)C(=O)N2CCC[C@H]2C(=O)N[C@@H](Cc2ccc(O)cc2)C(=O)N[C@@H](Cc2ccc(O)cc2)C(=O)N[C@@H](Cc2ccc(C(=O)O)cc2)C(=O)N[C@@H](CC2CCNCC2)C(=O)N[C@@H](CC2CCCCC2)C(=O)N[C@H](C(=O)N[C@H](CCC(=O)O)C(N)=O)CSCC(=O)N(C)[C@@H](CCC(=O)O)C(=O)N1C` [Peptide 5555_p201] ({CH2CO}-[NMeE][NMeNle][Aib][Ala(indan-2-yl)][Phe(4-F)]PYY[Phe(4-COOH)][Ala(piperidin-4-yl)][Cha]C[dE]-NH2; thioether N-12), half-maximal inhibition (IC50) was put at 0.7 nM and the “Imax: % (at 500 nM)” value is listed as 101%.

As for `CCCC[C@H]1C(=O)NC(C)(C)C(=O)N[C@@H](CC2CCCCC2)C(=O)N[C@@H](Cc2ccc(F)cc2)C(=O)NC(C)(CO)C(=O)N[C@@H](Cc2ccc(O)cc2)C(=O)N[C@@H](Cc2ccc(O)cc2)C(=O)N[C@@H](Cc2ccc(C(=O)O)cc2)C(=O)N[C@@H](CC2CCNCC2)C(=O)N[C@@H](CC2CCCCC2)C(=O)N[C@H](C(=O)N[C@H](CCC(=O)O)C(N)=O)CSCC(=O)N(C)[C@@H](CCC(=O)O)C(=O)N1C` (stereo partly shown) [Peptide 5555_p203] ({CH2CO}-[NMeE][NMeNle][Aib][Cha][Phe(4-F)][ξαMeS]YY[Phe(4-COOH)][Ala(piperidin-4-yl)][Cha]C[dE]-NH2; thioether N-12), the IC50 turned out to be 0.5 nM and the “Imax: % (at 500 nM)” value is 101%.

Consider `CCCC[C@H]1C(=O)NC(C)(C)C(=O)N[C@@H](CC2Cc3ccccc3C2)C(=O)N[C@@H](Cc2ccc(F)cc2)C(=O)N(C)CC(=O)N[C@@H](Cc2ccc(O)cc2)C(=O)N[C@@H](Cc2ccc(O)cc2)C(=O)N[C@@H](CCCNC(N)=O)C(=O)N[C@H](CCCCN)C(=O)N[C@@H](CC2CCCCC2)C(=O)N[C@H](C(=O)N[C@H](CCC(=O)O)C(N)=O)CSCC(=O)N(C)[C@@H](CCC(=O)O)C(=O)N1C` [Peptide 5555_p213] ({CH2CO}-[NMeE][NMeNle][Aib][Ala(indan-2-yl)][Phe(4-F)][Sar]YY[Cit][dK][Cha]C[dE]-NH2; thioether N-12), for which the IC50 stood at 0.6 nM and the “Imax: % (at 500 nM)” value is 101%.

Consider `CCCC[C@H]1C(=O)NC(C)(C)C(=O)N[C@@H](CC2Cc3ccccc3C2)C(=O)N[C@@H](Cc2ccc(F)cc2)C(=O)N2CCC[C@H]2C(=O)N[C@@H](Cc2ccc(O)cc2)C(=O)N[C@@H](Cc2ccc(O)cc2)C(=O)N[C@@H](CCCNC(N)=O)C(=O)N[C@H](CCCCN)C(=O)N[C@@H](CC2CCCCC2)C(=O)N[C@H](C(=O)N[C@H](CCC(=O)O)C(N)=O)CSCC(=O)N(C)[C@@H](CCC(=O)O)C(=O)N1C` [Peptide 5555_p216] ({CH2CO}-[NMeE][NMeNle][Aib][Ala(indan-2-yl)][Phe(4-F)]PYY[Cit][dK][Cha]C[dE]-NH2; thioether N-12), for which the IC50 worked out at 0.4 nM and the “Imax: % (at 500 nM)” value is 102%.

`CCCC[C@H]1C(=O)NC(C)(C)C(=O)N[C@@H](CC2CCCCC2)C(=O)N[C@@H](Cc2ccc(F)cc2)C(=O)NC(C)(CO)C(=O)N[C@@H](Cc2ccc(O)cc2)C(=O)N[C@@H](Cc2ccc(O)cc2)C(=O)N[C@@H](CCCNC(N)=O)C(=O)N[C@H](CCCCN)C(=O)N[C@@H](CC2CCCCC2)C(=O)N[C@H](C(=O)N[C@H](CCC(=O)O)C(N)=O)CSCC(=O)N(C)[C@@H](CCC(=O)O)C(=O)N1C` (stereo partly shown) [Peptide 5555_p218] ({CH2CO}-[NMeE][NMeNle][Aib][Cha][Phe(4-F)][ξαMeS]YY[Cit][dK][Cha]C[dE]-NH2; thioether N-12): the IC50 was 0.3 nM and the “Imax: % (at 500 nM)” value is 101%.
